Results published in patent US11912716B2 (priority 2018, dated 2024).

Tests used:
[1] = system: formation of conditioned place preference induced by morphine in rats; experiment: formation of conditioned place preference induced by morphine, concomitant administration (Example 13); type: in vivo, SD rats; conditions: 70 mg/kg oral 30 minutes before each morphine injection (10 mg/kg s.c.), four consecutive days
[2] = system: morphine-induced conditioned place preference behavior in rats; experiment: morphine-induced conditioned place preference behavior, single oral administration before test (Example 12); type: in vivo, SD rats; conditions: 70 mg/kg single oral dose 60 minutes before test, morphine 10 mg/kg s.c. for four days
morphine-dependent mice = experiment: morphine-induced physical dependence, withdrawal jumping (Example 15); type: in vivo, Kunming mice; conditions: 1 g/kg, 3 hours before naloxone
[3] = system: morphine-dependent animals; experiment: naloxone-precipitated morphine-withdrawal jumping (Example 10); type: in vivo, Kunming mice
SD rats = experiment: addictive potential: induction of conditioned place preference (Example 14); conditions: for CPP SCORE: morphine 10 mg/kg s.c. daily for four consecutive days, hydrochloride
[4] = 0.125 g/kg intragastric, 1 hour after administration
[5] = 0.25 g/kg intragastric, 1 hour after administration
[6] = 0.5 g/kg intragastric, 1 hour after administration
[7] = 0.5 g/kg intragastric, 3 hours after administration

With `CC(=O)O[C@H]1[C@H](OC(C)=O)[C@H]([C@@](C)(O)CC[C@@H]2OC(C)(C)[C@H]3CC[C@]2(C)O3)[C@@]2(C)CC[C@@H]3OC(C)(C)[C@H](OC(C)=O)CC[C@@]3(C)[C@H]12` [3,12,13-triacetyl limaxol A, (3R,5aS,7aS,8R,9R,10R,10aR,10bS)-dodecahydro-8-((S)-2-hydroxy-4-((1S,2S,5R)-1,4,4-trimethyl-3,8-dioxa-bicyclo[3.2.1]octan-2-yl)butan-2-yl)-4,4,7a,10b-tetramethyl-1H-indeno[5,4-b]oxepine-3,9,10-triol triacetate] the “CPP SCORE” value ([1]; listed as Triacetyl limaxol A) was 223.8 ± 34.0 n = 6 s, the “CPP SCORE” value ([1]; listed as triacetyl limaxol A) was 318.5 ± 90.9 s and the “CPP SCORE” value ([2]; listed as Triacetyl limaxol A) was 318.5 ± 90.9 n = 7 s. For the same compound, the “CPP SCORE” value ([2]; listed as triacetyl limaxol A) was 318.5 ± 90.9 s, the “Inhibition of morphine-withdrawal jumping” value (morphine-dependent mice) was 43.13% and the “Jumping times (Mean ± SEM)” value (morphine-dependent mice) was 21.7 ± 6.9. The “% Inhibition of morphine-withdrawal jumping” value (“% Inhibition” for short) [3, 4] was 3.0 ± 12.2%, the “Jumping times (Mean ± SEM)” value [3, 4] was 33.5 ± 4.1 and the “% Inhibition” value [3, 5] was 21.1 ± 28.2%. The “Jumping times (Mean ± SEM)” value [3, 5] was 27.5 ± 9.4, the “% Inhibition” value [3, 6] was 48.2 ± 7.5% and the “Jumping times (Mean ± SEM)” value [3, 6] was 18.5 ± 2.4. The “% Inhibition” value [3, 7] was 45.0 ± 17.0% and the “Jumping times (Mean ± SEM)” value [3, 7] was 16.7 ± 4.9.
For `CC(=O)O[C@H]1[C@H](OC(C)=O)[C@H]([C@@](C)(O)CC[C@]2(C)OC(C)(C)[C@H]3CC[C@]2(C)O3)[C@@]2(C)CC[C@@H]3OC(C)(C)[C@H](O)CC[C@@]3(C)[C@H]12` [limaxol A, reference compound], the “Inhibition of morphine-withdrawal jumping” value (morphine-dependent mice) was 21.26% and the “Jumping times (Mean ± SEM)” value (morphine-dependent mice) was 30.0 ± 9.7.
With `CCC(=O)C(CC(C)N(C)C)(c1ccccc1)c1ccccc1` (stereo not drawn) [methadone, reference compound] the “Jumping times (Mean ± SEM)” value ([3]; methadone 20 mg/kg intragastric, 1 hour before naloxone, jumpings within 30 minutes) was 33.8 ± 3.3 and the “withdrawal jumping symptoms versus morphine model group (in words)” value ([3]; methadone 20 mg/kg, 1 hour after administration) was “significantly reduced”.
`CN1CC[C@]23c4c5ccc(O)c4O[C@H]2[C@@H](O)C=C[C@H]3[C@H]1C5.Cl` [morphine, morphine hydrochloride] was tested, and the “induction of conditioned place preference (in words)” value (SD rats; morphine 10 mg/kg s.c.) was “induced conditioned place preference behavior”, the “CPP SCORE” value (SD rats) was 208.3 ± 16.2 s and the “CPP SCORE” value (SD rats; listed as Morphine) was 208.3 ± 16.2 n = 10 s.
